Measured values taken from patent publication US20040110678A1, “Novel drug delivery system” (priority 2001, published 2004).
Values after ≈ are worked out from the molar mass of the structure shown. Like-named read-outs stand apart in the source and are kept apart here. One block for each molecule: values may come before it. Where a SMILES comes first, the peptide text is derived from it. The star is where a group is joined. Palmitoyl = CCCCCCCCCCCCCCCC(=O)*; Myristoyl = CCCCCCCCCCCCCC(=O)*

How the values were obtained:
[1] = test system: Staphylococcus aureus NCTC Oxford; experiment: microbe, parasite or virus in culture; format: cell-based; conditions: for MIC: read-out: MIC S. aureus
Method: (§1) Staphylococcus aureus NCTC Oxford and Escherichia coli 0111-NCTC 8007 strains were obtained from the National Collection of Type Cultures, Colindale, UK MIC for each sample was determined in 96 well plates. The above sample in PBS was serially diluted in microtitre wells with media, RPMI-1640 to give concentrations from 2 mg/ml to 0.00375 mg/ml or from 1 mg/ml to 0.00375 mg/ml or from 0.5 mg/ml to 0.00375 mg/ml of RH01 in a final volume of 100 μl. Bacteria were incubated at 37° C. overnight in standard media to give approximately 10^8 bacteria/ml and 10 μl of this was added to each well. The plates were incubated at 37° C. overnight, and bacterial growth determined by formation of a pellet.
(§2) Staphylococcus aureus NCTC Oxford and Escherichia coli 0111-NCTC 8007 strains were obtained from the National Collection of Type Cultures, Colindale, UK. The MIC for each sample was determined in 96 well plates. The RH01 in PBS (see above) was serially diluted in microtitre wells with media (RPMI-1640) to give final concentrations of 2 mg/ml to 0.00375 mg/ml of RH01 in a final volume of 100 μl. Bacteria were incubated at 37° C. overnight in standard media to give approximately 10^8 bacteria/ml and 10 μl of this was added to each well. The plates were incubated at 37° C. overnight, and bacterial growth determined by formation of a pellet.

[2] = molecular target: T1, HSAff (Homo sapiens, UniProt P02768); experiment: Displacement of albumin-bound diazepam from HSAff-diazepam (1:1) monitored by induced CD; format: binding
T1 construct: purchased Sigma-Aldrich Company Ltd catalogue number not given; lot 32H9300
Method: Diazepam (0.088 mg) was dissolved by sonication for 30 mins in distilled water (0.687 ml). Sodium palmitate (0.872 mg) was dissolved in water pH 8.8 (0.698 ml) by sonicating for 5 mins. […] The CD spectrum of the mixture was then recorded. Sodium palmitate (51 μl) was added to the cell and the mixture was gently mixed by rotating the cell several times. The CD spectrum of the mixture was recorded. This process was repeated twice over, each time the CD spectrum was recorded. The cell was then washed thoroughly with distilled water and ethanol. Distilled water (2.705 ml) was then placed in the 5 cm cell and CD spectrum recorded.
CD spectra were recorded with nitrogen flushed JASCO spectropolarimeter J600 using 4 s time constant, 10 nm/min scan speed and a spectral bandwidth of 2 nm. The induced CD spectra of bound diazepam were obtained by subtracting the spectrum of albumin from that of the HSA-diazepam mixture. The spectra were reported as Δε=εL−εR(M^−1cm^−1).
Diazepam and medium chain fatty acids are known to bind to albumin site II as discussed by T Peters, All about albumin, Academic Press, 1999, p116. The fatty acid molecules are devoid of any CD signal. […] In here, diazepam is used as a marker to show the binding of fatty acids and fatty acid containing molecules to albumin. […] Palmitic acid binds to at least five long chain fatty acid binding sites of which one is closely located to albumin site II as reported by Curry et al. (1998, Nature Structural Biology, 5, 827-835).

[3] = test system: Pronase®; format: in vitro ADME
Method: HSA fatty acid free (2.359 mg) was dissolved in distilled water (3.93 ml) to give concentration 0.60 mg/ml. Pronase® (0.363 mg) was dissolved in distilled water (0.605 ml) to give a concentration 0.60 mg/ml.
HSA fatty acid free solution (0.2 ml) was placed in a 0.05 cm cell and the circular dichroism spectrum (CD) was recorded. The cell was then thoroughly washed with distilled water and ethanol. HSA fatty acid free solution (2.7 ml) was placed in a glass vial. Pronase® solution (27 μl) was added to HSA fatty acid free solution in the glass vial. The mixture was mixed gently and 200 μl was transferred to 0.05 cm cell. The cell was then incubated at 37° C. and CD spectra recorded at various incubation time intervals.
CD spectra were recorded with nitrogen flushed JASCO spectropolarimeters J600 4s time constant, 10 nm/min scan speed and a spectral bandwidth of 2 nm. […]
HSA fatty acid free solution (275 μl) was placed in a glass vial. […] Mixture (200 μl) was transferred into a 0.05 cm cell and CD spectrum was recorded. […] The cell was then incubated at 37° C. and CD spectra recorded at various incubation time intervals.
HSA with fatty acid solution (275 μl) was placed in a glass vial. […] Mixture (200 μl) was transferred into a 0.05 cm cell and CD spectrum was recorded. […] The cell was then incubated at 37° C. and CD spectra recorded at various incubation time intervals. […]

[4] = test system: Escherichia coli 0111-NCTC 8007; format: cell-based; conditions: for Minimum Inhibitory Concentration E. coli: NCTC 8007
Method: as §1, §2

[5] = molecular target: T2, BSAff (Bos taurus, UniProt P02769); experiment: Diazepam binding to fatty acid free bovine serum albumin by induced CD; conditions: fatty acid 0M/M
T2 construct: Bovine serum albumin essentially fatty acid free; purchased Sigma-Aldrich Company Ltd catalogue number not given; lot 100K7415
Method: BSAff (1.914 mg) was dissolved in distilled water (3.19 ml) to give concentration of 0.6 mg/ml. Diazepam (0.422 mg) was dissolved by sonication for 30 mins in distilled water (3.297 ml) to give a concentration of 0.128 mg/ml. BSAff solution (1.05 ml) was transferred to 2 cm cell and CD spectra was recorded. Diazepam (22 μl) was added to the BSAff in the 2 cm cell and the mixture was gently mixed by rotating the cell several times. The CD spectrum of the mixture was then recorded. The cell was then washed thoroughly with distilled water and ethanol. Distilled water (1.10 ml) was then placed in the 2 cm cell and CD spectrum recorded. CD parameters are as in example 1.

[6] = Staphylococcus aureus, 0.5 h, Table 2, peptide incubation time in mixture 30 min 25° C.
[7] = Staphylococcus aureus, Table 2, peptide incubation time in mixture 2 h 37° C.

T1 sequence (P02768 25-609): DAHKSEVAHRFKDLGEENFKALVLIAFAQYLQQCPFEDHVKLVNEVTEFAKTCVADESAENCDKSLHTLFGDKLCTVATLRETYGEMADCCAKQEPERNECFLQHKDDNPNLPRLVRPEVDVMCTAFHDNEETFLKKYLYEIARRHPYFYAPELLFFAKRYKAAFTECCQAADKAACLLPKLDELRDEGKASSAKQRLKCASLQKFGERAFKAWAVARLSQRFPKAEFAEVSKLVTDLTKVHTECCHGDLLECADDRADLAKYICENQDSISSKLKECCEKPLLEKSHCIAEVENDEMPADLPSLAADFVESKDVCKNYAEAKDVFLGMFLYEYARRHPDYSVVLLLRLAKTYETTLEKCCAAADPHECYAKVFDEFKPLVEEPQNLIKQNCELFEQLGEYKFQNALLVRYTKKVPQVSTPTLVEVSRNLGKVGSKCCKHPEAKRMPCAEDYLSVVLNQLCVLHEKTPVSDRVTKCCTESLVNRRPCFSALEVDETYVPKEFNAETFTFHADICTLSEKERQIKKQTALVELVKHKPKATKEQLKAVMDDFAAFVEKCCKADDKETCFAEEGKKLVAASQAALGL
T2 sequence (P02769 25-607): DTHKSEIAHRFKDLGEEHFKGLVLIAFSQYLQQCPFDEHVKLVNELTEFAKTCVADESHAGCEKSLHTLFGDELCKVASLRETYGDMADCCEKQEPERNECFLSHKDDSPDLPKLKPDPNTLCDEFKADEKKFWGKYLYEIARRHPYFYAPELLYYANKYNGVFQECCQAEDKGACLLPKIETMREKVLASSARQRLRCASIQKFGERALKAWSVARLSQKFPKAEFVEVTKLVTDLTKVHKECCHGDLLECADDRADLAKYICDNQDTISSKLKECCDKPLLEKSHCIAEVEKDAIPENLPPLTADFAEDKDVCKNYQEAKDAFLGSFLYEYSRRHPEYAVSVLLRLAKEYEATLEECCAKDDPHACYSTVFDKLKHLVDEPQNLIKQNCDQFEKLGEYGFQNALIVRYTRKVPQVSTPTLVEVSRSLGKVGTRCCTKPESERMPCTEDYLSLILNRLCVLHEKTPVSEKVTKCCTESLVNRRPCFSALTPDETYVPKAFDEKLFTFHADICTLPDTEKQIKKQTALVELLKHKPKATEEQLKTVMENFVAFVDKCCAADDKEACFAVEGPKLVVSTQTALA

MIC [1, 6]: > 800 µM
MIC [1, 7]: > 800 µM
Molecule: CCCCCCCC(=O)O [CA, caprylic acid, reference compound]

percentage of diazepam induced CD ([2]; 1 molar equivalent added to the mixture HSAff-diazepam (1:1)): 88.5%
percentage of diazepam induced CD ([2]; 2 molar equivalents added to the mixture HSAff-diazepam (1:1)): 60.0%
percentage of diazepam induced CD ([2]; 3 molar equivalents added to the mixture HSAff-diazepam (1:1)): 18.6%
MIC [1, 6]: > 800 µM
MIC [1, 7]: > 800 µM
Molecule: CCCCCCCCCCCCCCCC(=O)O [PA, palmitic acid]

Molecule: CCCCCCCCCCCCCC(=O)N[C@@H](Cc1ccccc1)C(=O)N[C@@H](C)C(=O)N[C@@H](CCCNC(=N)N)C(=O)N[C@@H](CCCCN)C(=O)NCC(=O)N[C@@H](C)C(=O)N[C@@H](CC(C)C)C(=O)N[C@@H](CCCNC(=N)N)C(=O)N[C@@H](CCC(N)=O)C(=O)O [RH01] (Myristoyl-FARKGALRQ-OH)
displacement of diazepam (DZ) from HSAff-DZ (1:1) ([2]; added at different molar ratios, data not shown): decreased induced CD
stability towards Pronase degradation, comparison in words [3]: stabilises fat free DBax HSA like HSAff
Minimum Inhibitory Concentration E. coli [4]: 48 µM
potency with HSAff compared to the lipopeptide alone or with HSAfa ([4]; from Table 1): twice as potent
MIC ([1]; NCTC Oxford, 2 h): 24 µM (≈ 30.2 µg/mL)
MIC ([1]; NCTC Oxford): 12 µM (≈ 15.1 µg/mL)
potency with HSAff compared to the lipopeptide alone or with HSAfa ([1]; from Table 1): twice as potent

Molecule: CCCCCCCCCCCCCCCC(=O)NCCCC[C@H](NC(=O)[C@H](CC(N)=O)NC(=O)[C@H](CCCCN)NC(=O)[C@H](CCC(N)=O)NC(=O)[C@H](CCCNC(=N)N)NC(=O)[C@H](CC(C)C)NC(=O)[C@H](C)NC(=O)CNC(=O)[C@H](CCCCN)NC(=O)[C@H](CCCNC(=N)N)NC(=O)[C@H](C)NC(=O)[C@H](Cc1ccccc1)NC(=O)[C@H](CCCCN)NC(=O)CCCCCCCCCCCCCCC)C(N)=O [RH02] (Palmitoyl-KFARKGALRQKNK(Palmitoyl)-NH2)
Minimum Inhibitory Concentration E. coli [4]: 62 µM
Minimum Inhibitory Concentration S. aureus ([1]; NCTC Oxford): 3.7 µM

Molecule: CCCCCCCCCCCCCCCC(=O)NCCCC[C@H](NC(=O)[C@H](CC(N)=O)NC(=O)[C@H](CCCCN)NC(=O)[C@H](CCCCNC(=O)CCCCCCCCCCCCCCC)NC(=O)[C@H](CCCNC(=N)N)NC(=O)[C@H](CC(C)C)NC(=O)[C@H](C)NC(=O)CNC(=O)[C@H](CCCCN)NC(=O)[C@H](CCCNC(=N)N)NC(=O)[C@H](C)NC(=O)[C@H](Cc1ccccc1)NC(=O)[C@H](CCCCN)NC(=O)CCCCCCCCCCCCCCC)C(N)=O [RH03] (Palmitoyl-KFARKGALRK(Palmitoyl)KNK(Palmitoyl)-NH2)
Minimum Inhibitory Concentration E. coli [4]: 441 µM
Minimum Inhibitory Concentration S. aureus ([1]; NCTC Oxford): 55 µM

Molecule: CC(C)C[C@H](NC(=O)[C@H](C)NC(=O)CNC(=O)[C@H](CCCCN)NC(=O)[C@H](CCCNC(=N)N)NC(=O)[C@H](CCCCN)NC(=O)[C@H](Cc1ccccc1)NC(=O)[C@@H](N)CCCCN)C(=O)N[C@@H](CCCNC(=N)N)C(=O)N[C@@H](CCC(N)=O)C(=O)N[C@@H](CCCCN)C(=O)N[C@@H](CC(N)=O)C(=O)N[C@@H](CCCCN)C(N)=O [RH04]
Minimum Inhibitory Concentration E. coli [4]: 620 µM
Minimum Inhibitory Concentration S. aureus ([1]; NCTC Oxford): 145 µM

Molecule: BSAff: bovine serum albumin essentially fatty acid free and essentially globulin-free
induced CD of diazepam bound to BSAff, in words [5]: characteristic induced CD
